Experiments:
MMP-3 = biological target: T1, MMP-3 (Homo sapiens, UniProt P08254); assay: Inhibition of MMP-3 (fluorogenic peptide cleavage); type: biochemical; details: in vitro, catalytic domain MMP-3
T1 construct: Catalytic domains MMP-2, MMP-3 and MMP-9 were prepared in Pfizer Central Research laboratories; made in house
Protocol: (§1) The biological activities of the compounds of the present invention were determined by the following test methods, which are based on the ability of the compounds to inhibit the cleavage of various fluorogenic peptides by MMPs 1, 2, 3, 9, 13 and 14.
(§2) The assays for MMPs 2, 3, 9 and 14 are based upon the original protocol described in FEBS, 1992, 296, 263, with the minor modifications described below.
(§3) Inhibition of MMP-2, MMP-3 and MMP-9
(§4) Catalytic domains MMP-2, MMP-3 and MMP-9 were prepared in Pfizer Central Research laboratories. A stock solution of MMP-2, MMP-3 or MMP-9 (1 μM) was activated by the addition of APMA. For MMP-2 and MMP-9, a final concentration of 1 mM APMA was added, followed by incubation for 1 hour at 37° C. MMP-3 was activated by the addition of 2 mM APMA, followed by incubation for 3 hours at 37° C. The enzymes were then diluted in Tris-HCl assay buffer (100 mM Tris, 100 mM NaCl, 10 mM CaCl2 and 0.16% Brij 35, pH 7.5) to a concentration of 10 nM. The final concentration of enzyme used in the assays was 1 nM.
(§5) The fluorogenic substrate used in this screen was Mca-Arg-Pro-Lys-Pro-Tyr-Ala-Nva-Trp-Met-Lys(Dnp)-NH2 (Bachem Ltd., Essex, UK) as originally described in J.Biol.Chem., 1994, 269, 20952. This substrate was selected because it has a balanced hydrolysis rate against MMPs 2, 3 and 9 (kcat/km of 54,000, 59,400 and 55,300 s^−1 M^−1 respectively). The final substrate concentration used in the assay was 5 μM.
(§6) Determination of Enzyme Inhibition
(§7) The test compound was dissolved in dimethyl sulphoxide and diluted with assay buffer so that no more than 1% dimethyl sulphoxide was present. Test compound and enzyme were added to each well of a 96 well plate and allowed to equilibrate for 15 minutes at 37° C. in an orbital shaker prior to the addition of substrate. Plates were then incubated for 1 hour at 37° C., prior to determination of fluorescence using a fluorimeter (Fluostar; BMG Lab Technologies, Aylesbury, UK) at an excitation wavelength of 328 nm and emission wavelength of 393 nm. The potency of inhibition was measured from the amount of substrate cleavage obtained using a range of test compound concentrations and, from the resulting dose-response curve, an IC50 value (the concentration of inhibitor required to inhibit 50% of the enzyme activity) was calculated.

MMP-2 = biological target: T2, MMP-2 (Homo sapiens, UniProt P08253); assay: Inhibition of MMP-2 (fluorogenic peptide cleavage); type: biochemical; details: in vitro, catalytic domain MMP-2
T2 construct: Catalytic domains MMP-2, MMP-3 and MMP-9 were prepared in Pfizer Central Research laboratories
T2 sequence (P08253 with tags, fused parts or gaps DEL222-396 limits assumed): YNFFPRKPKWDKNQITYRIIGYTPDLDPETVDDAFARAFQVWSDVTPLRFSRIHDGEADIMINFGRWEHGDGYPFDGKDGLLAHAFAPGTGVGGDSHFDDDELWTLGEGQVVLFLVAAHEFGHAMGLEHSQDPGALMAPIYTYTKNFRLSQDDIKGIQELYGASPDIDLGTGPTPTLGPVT
Protocol: as §1, §2, §3, §4, §5, §6, §7

[1] = system: human ovarian carcinoma xenografts; details: mice carrying human ovarian carcinoma xenografts; Cancer Res., 1993, 53, 2087; cited from earlier work
Human recombinant MMP-13 = biological target: T3, Human recombinant MMP-13 (Homo sapiens, UniProt P45452); assay: Inhibition of MMP-13 (fluorogenic peptide cleavage); type: biochemical; details: in vitro
T3 construct: purchased PanVera Corporation (Madison, Wis.)
Protocol: as §1
Human recombinant MMP-13 was prepared by PanVera Corporation (Madison, Wis.) and characterised at Pfizer Central Research laboratories. A 1.9 mg/ml stock solution was activated with 2 mM APMA for 2 hours at 37° C. MMP-13 was then diluted in assay buffer (50 mM Tris, 200 mM NaCl, 5 mM CaCl2, 20 μM ZnCl2 and 0.02% Brij 35, pH 7.5) to a concentration of 5.3 nM. The final concentration of enzyme used in the assay was 1.3 nM.
The fluorogenic substrate used in this screen was Dnp-Pro-Cha-Gly-Cys(Me)-His-Ala-Lys(NMA)-NH2. The final substrate concentration used in the assay was10 μM.
as §6
The test compound was dissolved in dimethyl sulphoxide and diluted with assay buffer so that no more than 1% dimethyl sulphoxide was present. Test compound and enzyme were added to each well of a 96 well plate. The addition of substrate to each well initiated the reaction. Fluorescence intensity was determined using a 96 well plate fluorimeter (Cytofluor II; PerSeptive Biosystems, Inc., Framingham, Mass.) at an excitation wavelength of 360 nm and emission wavelength of 460 nm. […]

T1 sequence (P08254 100-272 limits assumed): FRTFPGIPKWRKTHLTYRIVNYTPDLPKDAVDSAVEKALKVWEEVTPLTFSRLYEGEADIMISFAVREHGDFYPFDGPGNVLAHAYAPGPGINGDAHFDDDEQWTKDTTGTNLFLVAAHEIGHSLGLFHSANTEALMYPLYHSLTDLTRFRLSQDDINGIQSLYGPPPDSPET

Row | Compound | IC50 (MMP-3) [nM] | IC50 (MMP-2) [nM] | survival [1] | tumour burden [1] | IC50 (Human recombinant MMP-13) [nM] | melting point [°C]
1 | C=CCC(C)(C(=O)NO)S(=O)(=O)N1CC=C(c2ccc(-c3ccccc3)c(C)c2)CC1 (racemic) [Example 15, N-Hydroxy-2(R,S)-methyl-2-[4-(3-methyl-4-phenylphenyl)-1,2,3,6-tetrahydropyridin-1-ylsulphonyl]pent-4-enamide] | 20 | 173 | – | – | – | –
2 | CNC(=O)[C@H](Cc1ccccc1)NC(=O)[C@H](CC(C)C)[C@H](CSc1cccs1)C(=O)NO [BB-94] | – | – | prolong the survival | decrease the tumour burden | – | –
3 | Cc1cc(C2=CCN(S(=O)(=O)CC(=O)NO)CC2)ccc1-c1ccccc1 [Example 2, N-Hydroxy-2-[4-(3-methyl-4-phenylphenyl)-1,2,3,6-tetrahydropyridin-1-ylsulphonyl]acetamide] | 16 | 315 | – | – | 28 | 190 to 191
4 | O=C(CS(=O)(=O)N1CCC(c2ccc(-c3ccccc3)cc2)CC1)NO [Example 3, N-Hydroxy-2-[4-(4-phenylphenyl)piperidin-1-ylsulphonyl]acetamide] | 26 | 38 | – | – | 25 | 200 to 201
5 | CCOc1cccc(-c2ccc(C3=CCN(S(=O)(=O)C4(C(=O)NO)CCOCC4)CC3)cc2C)c1 [Example 28, N-Hydroxy-4-{4-[4-(3-ethoxyphenyl)-3-methylphenyl]-1,2,3,6-tetrahydropyridin-1-ylsulphonyl}tetrahydropyran-4-carboxymide] | 24 | 432 | – | – | – | 152 to 154
6 | Cc1cc(C2=CCN(S(=O)(=O)C(C)(C)C(=O)NO)CC2)ccc1-c1cnc2ccccc2c1 [Example 40, N-Hydroxy-2-methyl-2-{4-[3-methyl-4-(quinolin-3-yl)phenyl]-1,2,3,6-tetrahydropyridin-1-ylsulphonyl}propanamide] | 18 | 525 | – | – | – | 158 to 160
7 | COc1cccc(-c2ccc(C3CCN(S(=O)(=O)C4(C(=O)NO)Cc5ccccc5C4)CC3)cc2C)c1 [Example 50, N-Hydroxy-2-{4-[4-(3-methoxyphenyl)-3-methylphenyl]piperidin-1-ylsulphonyl}indane-2-carboxymide] | 23 | 1910 | – | – | – | 199 to 202
8 | Cc1cc(C2=CCN(S(=O)(=O)CC(=O)NO)CC2)ccc1-c1ccc2c(c1)OCO2 [Example 56, N-Hydroxy-2-{4-[4-(1,3-benzodioxol-5-yl)-3-methylphenyl]-1,2,3,6-tetrahydropyridin-1-ylsulphonyl}acetamide] | 15 | 387 | – | – | – | 165 to 167

From patent publication US6495568B1, “Hydroxamic acid derivatives as matrix metalloprotease (MMP) inhibitors” (Warner-Lambert Company, priority 1997, dated 2002)
